Measured values: PMC13237026, “Structural basis for a central permeation pathway in the P2X1 receptor” (Cell Discovery, 2026)

Legend:
mP2X1 receptor [1] = target: T1, mP2X1 receptor (Mus musculus, UniProt P51576); assay: whole-cell patch clamp, HEK293, ATP-evoked mixed-cation current; assay type: cell-based; set-up: gene P2rx1; full-length wild type; electrophysiology: HEK293, pCDNA3.1, labelled with mCherry
T1 sequence (P51576 1-399): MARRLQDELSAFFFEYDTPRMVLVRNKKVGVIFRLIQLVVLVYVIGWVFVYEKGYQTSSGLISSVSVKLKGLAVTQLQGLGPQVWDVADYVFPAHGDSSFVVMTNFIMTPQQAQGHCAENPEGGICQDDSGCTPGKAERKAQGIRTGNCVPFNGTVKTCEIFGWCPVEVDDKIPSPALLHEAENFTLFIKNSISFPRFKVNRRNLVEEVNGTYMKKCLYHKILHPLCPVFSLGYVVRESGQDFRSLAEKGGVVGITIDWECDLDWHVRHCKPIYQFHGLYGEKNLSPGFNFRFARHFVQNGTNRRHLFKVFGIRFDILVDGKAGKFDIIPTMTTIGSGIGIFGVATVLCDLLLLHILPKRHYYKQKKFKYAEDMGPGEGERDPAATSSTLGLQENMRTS

mP2X1 receptor [2] = target: T1, mP2X1 receptor; assay: cryo-EM structure of the complex; assay type: binding; set-up: gene P2rx1; full-length wild type; cryo-EM: Sf9, C-terminal His and Flag tags after HRV-3C site, homotrimer in LMNG; electrophysiology: HEK293, pCDNA3.1, labelled with mCherry
mP2X1 receptor [3] = target: T2, mP2X1 receptor (Mus musculus, UniProt P51576, K140A); assay: cell-based
T2 construct: gene P2rx1

mP2X1 receptor [4] = target: T3, mP2X1 receptor (Mus musculus, UniProt P51576, R139A); assay: cell-based
T3 construct: gene P2rx1

mP2X1 receptor [5] = target: T4, mP2X1 receptor (Mus musculus, UniProt P51576, K190A); assay: cell-based
T4 construct: gene P2rx1

mP2X1 receptor [6] = target: T1, mP2X1 receptor; assay: cell-based; set-up: gene P2rx1
[7] = target: the molecule itself; assay: cryo-EM structure; single-particle cryo-EM of purified mP2X1 in LMNG (20 mM HEPES pH 7.0, 150 mM NaCl, 0.002% LMNG), 4.0 mg/mL; without added Ca2+, with 1, 5 or 10 mM Ca2+, or with 5 mM Ca2+ and 10 uM BTFA

T2 sequence (P51576 whole entry K140A): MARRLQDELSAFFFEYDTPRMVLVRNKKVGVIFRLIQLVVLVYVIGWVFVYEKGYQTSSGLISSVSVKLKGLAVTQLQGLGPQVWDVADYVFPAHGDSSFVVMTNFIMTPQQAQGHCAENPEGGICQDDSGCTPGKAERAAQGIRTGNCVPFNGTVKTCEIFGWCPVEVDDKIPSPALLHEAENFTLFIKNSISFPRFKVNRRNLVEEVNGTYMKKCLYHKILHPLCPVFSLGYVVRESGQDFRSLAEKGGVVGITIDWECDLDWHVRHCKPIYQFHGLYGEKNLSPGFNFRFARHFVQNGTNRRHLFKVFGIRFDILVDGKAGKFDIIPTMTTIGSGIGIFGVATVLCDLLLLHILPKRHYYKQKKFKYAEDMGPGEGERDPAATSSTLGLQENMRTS
T3 sequence (P51576 whole entry R139A): as the sequence (P51576 whole entry K140A) above, with R139A, A140K counted along it
T4 sequence (P51576 whole entry K190A): as the sequence (P51576 whole entry K140A) above, with A140K, K190A counted along it

`Nc1cc(C(F)(F)F)cc(C(F)(F)F)c1` [BTFA, 3,5-bis(trifluoromethyl)aniline] was tested, and the IC50 (mP2X1 receptor [1]) was 4.3 µM and the “cryo-EM structure of the complex” value (mP2X1 receptor [2]; 10 μM BTFA, 5 mM Ca2+, allosteric, top of central vestibule) was “we determined the cryo-EM structure of the P2X1–BTFA complex”.

`Nc1ncnc2c1ncn2[C@@H]1O[C@H](COP(=O)(O)OP(=O)(O)OP(=O)(O)O)[C@@H](O)[C@H]1O` [ATP] showed an EC50 (mP2X1 receptor [3]) of 10.3 µM, an EC50 (mP2X1 receptor [4]) of 5.29 µM and an EC50 (mP2X1 receptor [5]) of 6.74 µM. For the same molecule, the EC50 (mP2X1 receptor [6]) was 0.829 µM and the “cryo-EM structure of the complex” value (mP2X1 receptor [2]; co-purified ATP, no exogenous ATP or Ca2+ added, three ATP per trimer, orthosteric site) was “EM maps revealed the presence of three clear ATP molecules within the structures”.

B1: full-length, wild-type mouse P2X1 (mP2X1) receptor (receptor, UniProt P51576 1-399, looked up)
chain: T1 sequence (P51576 1-399)
notes: mouse P2X1 receptor (P2RX1), wild type, full length, cloned from mouse olfactory cortex cDNA; His tag and Flag tag at the C-terminus are connected by an HRV-3C protease recognition site; no cleavage is described; N-linked glycosylation is observed; also called P2RX1; P2XR1; not shown: Flag (1x), C-terminal, kept
B1 was tested, and the “stoichiometry N” value [7] was 3.
